Measured values: patent US6835847B2, “Phthalic acid diamide, method for the production thereof and the use of the same as a pesticide” (Bayer CropScience AG, priority 2001, dated 2004)
“And” between values parts separate entries of the source, which are not always exact repeats. Identical values can stand only once.

tested on: not listed separately; test: logP determination by HPLC (reversed-phase C18), EEC directive 79/831 Annex V.A8; assay type: physicochemical; conditions: pH 2.3, 0.1% aqueous phosphoric acid/acetonitrile gradient, 43° C.
Protocol: The stated logP values were determined in accordance with EEC directive 79/831 Annex V.A8 by HPLC (High Performance Liquid Chromatography) using a reversed-phase column (C 18). Temperature: 43° C.
In the acidic range, the determination was carried out at pH 2.3 using the mobile phases 0.1% aqueous phosphoric acid and acetonitrile; linear gradient from 10% acetonitrile to 90% acetonitrile.
Calibration was carried out using unbranched alkan-2-ones (having 3 to 16 carbon atoms) with known logP values (determination of the logP values by the retention times using linear interpolation between two successive alkanones.

Molecule	log P (pH 2.3)
3-Chloro-N^1-[2-methyl-4-(1,1,2,2-tetrafluoroethoxy)phenyl]-N^2-[(trimethylsilyl)methyl]phthalamide (Isomer 1) and 3-chloro-N^2-[2-methyl-4-(1,1,2,2-tetrafluoroethoxy)phenyl]-N^1-[(trimethylsilyl)methyl]phthalamide (Isomer 2) [Example 2 Isomer Mixture]	3.59 and 3.69

same assay, conditions: pH 2.3, 0.1% aqueous phosphoric acid/acetonitrile gradient, 43° C., read-out: log P (pH 2.3)

Molecule	chromatographic logP
Cc1cc(C(F)(C(F)(F)F)C(F)(F)F)ccc1NC(=O)c1c(Cl)cccc1C(=O)NC(C)CSC[Si](C)(C)C (single isomer, unassigned) [Example 1 Isomer 1, 3-Chloro-N^2-{2-methyl-4-[1,2,2,2-tetrafluoro-1-(trifluoromethyl)ethyl]phenyl}-N^1-(1-methyl-2-{[(trimethylsilyl)methyl]sulphanyl}ethyl)phthalamide]	5.38
Cc1cc(C(F)(C(F)(F)F)C(F)(F)F)ccc1NC(=O)c1cccc(Cl)c1C(=O)NC(C)CSC[Si](C)(C)C (single isomer, unassigned) [Example 1 Isomer 2, 3-Chloro-N^1-{2-methyl-4-[1,2,2,2-tetrafluoro-1-(trifluoromethyl)ethyl]phenyl}-N^2-(1-methyl-2-{[(trimethylsilyl)methyl]sulphanyl}ethyl)phthalamide]	5.56
Cc1cc(C(F)(C(F)(F)F)C(F)(F)F)ccc1NC(=O)c1cccc(Cl)c1C(=O)NCC(C)(C)O[Si](C)(C)C (single isomer, unassigned) [Example 3 Isomer 1, 3-Chloro-N^1-{2-methyl-4-[1,2,2,2-tetrafluoro-1-(trifluoromethyl)ethyl]phenyl}-N^2-{2-methyl-2-[(trimethylsilyl)oxy]propyl}phthalamide]	3.11
Cc1cc(C(F)(C(F)(F)F)C(F)(F)F)ccc1NC(=O)c1c(Cl)cccc1C(=O)NCC(C)(C)O[Si](C)(C)C (single isomer, unassigned) [Example 3 Isomer 2, 3-Chloro-N^2-{2-methyl-4-[1,2,2,2-tetrafluoro-1-(trifluoromethyl)ethyl]phenyl}-N^1-{2-methyl-2-[(trimethylsilyl)oxy]propyl}phthalamide]	3.19
CC(N)CSC[Si](C)(C)C (stereo not shown) [1-{[(trimethylsilyl)methyl]sulphanyl}-2-propanamide]	1.28

tested on: Heliothis virescens caterpillars; test: Heliothis virescens test (soybean shoots dipped); assay type: in vivo; conditions: 500 ppm active compound
Protocol: (§1) To produce a suitable preparation of active compound, 1 part by weight of active compound is mixed with the stated amounts of solvent and emulsifier, and the concentrate is diluted with emulsifier-containing water to the desired concentration.
Soybean shoots (Glycine max) are treated by being dipped into the preparation of active compound of the desired concentration and are populated with Heliothis virescens caterpillars while the leaves are still moist.
(§2) After the desired period of time, the kill in % is determined. 100% means that all caterpillars have been killed; 0% means that none of the caterpillars have been killed.

Molecule	Kill rate in % after 7 d [%]
Cc1cc(C(F)(C(F)(F)F)C(F)(F)F)ccc1NC(=O)c1c(Cl)cccc1C(=O)NC(C)CSC[Si](C)(C)C (stereo not shown) [drawing 31]	100
Cc1cc(C(F)(C(F)(F)F)C(F)(F)F)ccc1NC(=O)c1cccc(Cl)c1C(=O)NC(C)CSC[Si](C)(C)C (stereo not shown) [drawing 32]	100
Cc1cc(C(F)(C(F)(F)F)C(F)(F)F)ccc1NC(=O)c1c(I)cccc1C(=O)NC(C)CSC[Si](C)(C)C (stereo not shown) [drawing 33]	100
Cc1cc(C(F)(C(F)(F)F)C(F)(F)F)ccc1NC(=O)c1cccc(I)c1C(=O)NC(C)CSC[Si](C)(C)C (stereo not shown) [drawing 34]	100

tested on: larvae of the mustard beetle (Phaedon cochleariae); test: Phaedon larvae test (cabbage leaves dipped); assay type: in vivo; conditions: 500 ppm active compound
Protocol: as §1
Cabbage leaves (Brassica oleracea) are treated by being dipped into the preparation of active compound of the desired concentration and are populated with larvae of the mustard beetle (Phaedon cochleariae) while the leaves are still moist.
After the desired period of time, the kill in % is determined. 100% means that all beetle larvae have been killed; 0% means that none of the beetle larvae have been killed.

Molecule	Kill rate in % after 7 d [%]
Cc1cc(C(F)(C(F)(F)F)C(F)(F)F)ccc1NC(=O)c1c(Cl)cccc1C(=O)NC(C)CSC[Si](C)(C)C (stereo not shown) [drawing 35]	90
Cc1cc(C(F)(C(F)(F)F)C(F)(F)F)ccc1NC(=O)c1cccc(Cl)c1C(=O)NC(C)CSC[Si](C)(C)C (stereo not shown) [drawing 36]	100
Cc1cc(C(F)(C(F)(F)F)C(F)(F)F)ccc1NC(=O)c1cccc(I)c1C(=O)NC(C)CSC[Si](C)(C)C (stereo not shown) [drawing 37]	100
Cc1cc(Oc2ccc(C(F)(F)F)cc2)ccc1NC(=O)c1cccc(I)c1C(=O)NC(C)CSC[Si](C)(C)C (stereo not shown) [drawing 38]	100
Cc1cc(Oc2ccc(C(F)(F)F)cc2)ccc1NC(=O)c1cccc(Cl)c1C(=O)NC(C)CSC[Si](C)(C)C (stereo not shown) [drawing 39]	100

tested on: caterpillars of the diamond back moth (Plutella xylostella, sensitive strain); test: Plutella test, sensitive strain (cabbage leaves dipped); assay type: in vivo; conditions: 500 ppm active compound
Protocol: Plutella Test, Sensitive Strain
as §1
Cabbage leaves (Brassica oleracea) are treated by being dipped into the preparation of active compound of the desired concentration and are populated with caterpillars of the diamond back moth (Plutella xylostella, sensitive strain) while the leaves are still moist.
as §2

Molecule	Kill rate in % after 7 d [%]
Cc1cc(C(F)(C(F)(F)F)C(F)(F)F)ccc1NC(=O)c1c(Cl)cccc1C(=O)NC(C)CSC[Si](C)(C)C (stereo not shown) [drawing 40]	100
Cc1cc(C(F)(C(F)(F)F)C(F)(F)F)ccc1NC(=O)c1cccc(Cl)c1C(=O)NC(C)CSC[Si](C)(C)C (stereo not shown) [drawing 41]	100
Cc1cc(C(F)(C(F)(F)F)C(F)(F)F)ccc1NC(=O)c1c(I)cccc1C(=O)NC(C)CSC[Si](C)(C)C (stereo not shown) [drawing 42]	100
Cc1cc(C(F)(C(F)(F)F)C(F)(F)F)ccc1NC(=O)c1cccc(I)c1C(=O)NC(C)CSC[Si](C)(C)C (stereo not shown) [drawing 43]	100

tested on: caterpillars of the diamond back moth (Plutella xylostella, resistant strain); test: Plutella test, resistant strain (cabbage leaves dipped); assay type: in vivo; conditions: 500 ppm active compound
Protocol: Plutella Test, Resistant Strain
as §1
Cabbage leaves (Brassica oleracea) are treated by being dipped into the preparation of active compound of the desired concentration and are populated with caterpillars of the diamond back moth (Plutella xylostella, resistant strain) while the leaves are still moist.
as §2

Molecule	Kill rate in % after 7 d [%]
Cc1cc(C(F)(C(F)(F)F)C(F)(F)F)ccc1NC(=O)c1c(Cl)cccc1C(=O)NC(C)CSC[Si](C)(C)C (stereo not shown) [drawing 44]	100
Cc1cc(C(F)(C(F)(F)F)C(F)(F)F)ccc1NC(=O)c1cccc(Cl)c1C(=O)NC(C)CSC[Si](C)(C)C (stereo not shown) [drawing 45]	100

tested on: caterpillars of the army worm (Spodoptera exigua); test: Spodoptera exigua test (cabbage leaves dipped); assay type: in vivo; conditions: 500 ppm active compound
Protocol: as §1
Cabbage leaves (Brassica oleracea) are treated by being dipped into the preparation of active compound of the desired concentration and are populated with caterpillars of the army worm (Spodoptera exigua) while the leaves are still moist.
as §2

Molecule	Kill rate in % after 7 d [%]
Cc1cc(C(F)(C(F)(F)F)C(F)(F)F)ccc1NC(=O)c1c(Cl)cccc1C(=O)NC(C)CSC[Si](C)(C)C (stereo not shown) [drawing 46]	100
Cc1cc(C(F)(C(F)(F)F)C(F)(F)F)ccc1NC(=O)c1cccc(Cl)c1C(=O)NC(C)CSC[Si](C)(C)C (stereo not shown) [drawing 47]	100
Cc1cc(C(F)(C(F)(F)F)C(F)(F)F)ccc1NC(=O)c1c(I)cccc1C(=O)NC(C)CSC[Si](C)(C)C (stereo not shown) [drawing 48]	100
Cc1cc(C(F)(C(F)(F)F)C(F)(F)F)ccc1NC(=O)c1cccc(I)c1C(=O)NC(C)CSC[Si](C)(C)C (stereo not shown) [drawing 49]	100

tested on: caterpillars of the army worm (Spodoptera frugiperda); test: Spodoptera frugiperda test (cabbage leaves dipped); assay type: in vivo; conditions: 168 h, 500 ppm active compound, after 7 d, read-out: Kill rate in % after 7 d
Protocol: Spodoptera frugiperda Test
as §1
Cabbage leaves (Brassica oleracea) are treated by being dipped into the preparation of active compound of the desired concentration and are populated with caterpillars of the army worm (Spodoptera frugiperda) while the leaves are still moist.
as §2

Molecule	pest or weed control at 500 ppm [%]
Cc1cc(C(F)(C(F)(F)F)C(F)(F)F)ccc1NC(=O)c1c(Cl)cccc1C(=O)NCC(C)(C)O[Si](C)(C)C	100
Cc1cc(C(F)(C(F)(F)F)C(F)(F)F)ccc1NC(=O)c1cccc(Cl)c1C(=O)NC[Si](C)(C)C	100
Cc1cc(C(F)(C(F)(F)F)C(F)(F)F)ccc1NC(=O)c1cccc(Cl)c1C(=O)NCC(C)(C)O[Si](C)(C)C	100
Cc1cc(Oc2ccc(C(F)(F)F)cc2)ccc1NC(=O)c1c(I)cccc1C(=O)NC(C)CSC[Si](C)(C)C (stereo not shown)	100
Cc1cc(Oc2ccc(C(F)(F)F)cc2)ccc1NC(=O)c1c(Cl)cccc1C(=O)NC(C)CSC[Si](C)(C)C (stereo not shown)	100
Cc1cc(-c2nnn(C(C)(C)C)n2)ccc1NC(=O)c1cccc(I)c1C(=O)NC(C)CSC[Si](C)(C)C (stereo not shown)	100
Cc1cc(C(F)(C(F)(F)F)C(F)(F)F)ccc1NC(=O)c1c(Cl)cccc1C(=O)NC(C)CSC[Si](C)(C)C (stereo not shown) [drawing 52]	100
Cc1cc(C(F)(C(F)(F)F)C(F)(F)F)ccc1NC(=O)c1cccc(Cl)c1C(=O)NC(C)CSC[Si](C)(C)C (stereo not shown) [drawing 54]	100
Cc1cc(C(F)(C(F)(F)F)C(F)(F)F)ccc1NC(=O)c1c(I)cccc1C(=O)NC(C)CSC[Si](C)(C)C (stereo not shown) [drawing 55]	100
Cc1cc(C(F)(C(F)(F)F)C(F)(F)F)ccc1NC(=O)c1cccc(I)c1C(=O)NC(C)CSC[Si](C)(C)C (stereo not shown) [drawing 56]	100
Cc1cc(Oc2ccc(C(F)(F)F)cc2)ccc1NC(=O)c1cccc(I)c1C(=O)NC(C)CSC[Si](C)(C)C (stereo not shown) [drawing 57]	100
Cc1cc(Oc2ccc(C(F)(F)F)cc2)ccc1NC(=O)c1cccc(Cl)c1C(=O)NC(C)CSC[Si](C)(C)C (stereo not shown) [drawing 58]	100
